According to patent US8969325B2, “TRPV1 antagonists” (AbbVie Inc., priority 2011, dated 2015):

How the values were obtained:
human TRPV1 [1] = biological target: T1, human TRPV1 (Homo sapiens (Human), UniProt Q8NER1); assay: Capsaicin Activation Assay (intracellular Ca2+, FLIPR); assay type: cell-based; details: recombinant HEK293 cells expressing hTRPV1, 50 nM capsaicin
Description: (Logan, Utah). Dulbecco's phosphate-buffered saline (D-PBS) (with 1 mg/mL glucose and 3.6 mg/l Na pyruvate, without phenol red), L-glutamine, hygromycin B, and Lipofectamine® were obtained from Life Technologies (Grand Island, N.Y.). G418 sulfate was obtained from Calbiochem-Novabiochem Corp. (San Diego, Calif.). […] (St. Louis, Mo.). […] The cDNA for human TRPV1 (hTRPV1) was isolated by reverse transcriptase-polymerase chain reaction (RT-PCR) from human small intestine poly A+ RNA supplied by Clontech (Palo Alto, Calif.) using primers designed surrounding the initiation and termination codons identical to the published sequences (Hayes et al. […] The resulting cDNA PCR products were subcloned into pCIneo mammalian expression vector (Promega) and fully sequenced using fluorescent dye-terminator reagents (Prism, PerkinElmer Applied Biosystems Division) and a PerkinElmer Applied Biosystems Model 373 DNA sequencer or Model 310 genetic analyzer. Expression plasmids encoding the hTRPV1 cDNA were transfected into HEK293 cells using Lipofectamine®. Forty-eight hours after transfection, the neomycin-resistant cells were selected with growth medium containing 800 μg/mL Geneticin (Life Technologies, formerly Gibco BRL). Surviving individual colonies were isolated and screened for TRPV1 activity. […] Compound stocks, 10 mM, were prepared in DMSO, and diluted serially across a 384-well plate using a Bravo BenchCel workstation (Agilent Technologies, Santa Clara, Calif.). […] On the day prior to the experiment, the recombinant HEK293 cells expressing human TRPV1 (hTRPV1) were removed from tissue culture flasks and plated in growth medium into black-walled clear-bottom 384-well Biocoat™ poly-D-lysine assay plates (BD Biosciences, Bedford, Mass.) using a Multidrop® dispenser (ThermoScientific, Waltham, Mass.). […] Molecular Devices, Sunnyvale, Calif.) was added to each well using the Multidrop® dispenser. […] Fluorescence readings were made at 1 to 5 second intervals over the course of the experimental run.

human TRPV1 [2] = biological target: T1, human TRPV1; assay: Acid Activation Assay (pH 5.0, intracellular Ca2+, FLIPR); assay type: cell-based; details: percentage of the maximal pH 5.0-induced response remaining; recombinant HEK293 hTRPV1 cells; maximum concentration tested 37.5 μM
Description: Dulbecco's modified Eagle's medium (DMEM) with 4.5 m g/mL D-glucose, fetal bovine serum, L-glutamine, and 2-morpholinoethanesulfonic acid (MES) were purchased from Sigma-Aldrich Co. (St. Louis, Mo.). Dulbecco's phosphate-buffered saline (DPBS) with Ca^2+, Mg^2+, and 1 mg/mL D-glucose (pH 7.4), Geneticin®, 0.25% trypsin-1 mM EDTA, and penicillin-streptomycin were purchased from Invitrogen Corp. (Carlsbad, Calif.). The FLIPR® Calcium 4 assay kit was purchased from Molecular Devices (Sunnyvale, Calif.).
The cDNA for human TRPV1 (hTRPV1) was isolated by reverse transcriptase-polymerase chain reaction (RT-PCR) from human small intestine poly A+ RNA supplied by Clontech (Palo Alto, Calif.) using primers designed surrounding the initiation and termination codons identical to the published sequences (Hayes et al. Pain 2000, 88, 205-215). The resulting cDNA PCR products were subcloned into pCIneo mammalian expression vector (Promega) and fully sequenced using fluorescent dye-terminator reagents (Prism, PerkinElmer Applied Biosystems Division) and a PerkinElmer Applied Biosystems Model 373 DNA sequencer or Model 310 genetic analyzer. Expression plasmids encoding the hTRPV1 cDNA were transfected into HEK293 cells using Lipofectamine®. Forty-eight hours after transfection, the neomycin-resistant cells were selected with growth medium containing 800 μg/mL Geneticin (Life Technologies, formerly Gibco BRL). Surviving individual colonies were isolated and screened for TRPV1 activity. Cells expressing recombinant TRPV1 were maintained at 37° C. in DMEM containing 4 mM L-glutamine, 300 μg/mL G418 (Calbiochem) and 10% fetal bovine serum under a humidified 5% CO2 atmosphere.
The functional activity of compounds at the TRPV1 receptor was determined by measurement of intracellular Ca^2+ levels ([Ca^2+]i) using the Fluorescence Imaging Plate Reader (FLIPR)TETRA®. All compounds were tested over a 12-point one-half-log concentration range with 37.5 μM being the maximum concentration tested. Compound stocks, 10 mM, were prepared in DMSO, and diluted serially across a 384-well plate using a Bravo BenchCel workstation (Agilent Technologies, Santa Clara, Calif.). On the day prior to the experiment, the recombinant HEK293 cells expressing human TRPV1 (hTRPV1) were removed from tissue culture flasks and plated in growth medium into black-walled clear-bottom 384-well Biocoat™ poly-D-lysine assay plates (BD Biosciences, Bedford, Mass.) using a Multidrop® dispenser (ThermoScientific, Waltham, Mass.). On the day of the experiment growth medium was removed, and the no-wash FLIPR® Calcium-4 dye (λEX=470-495 nm, λEM=515-575 nm) was added to each well using the Multidrop® dispenser. The plated cells were incubated for 90-120 min in the dark at 25° C. The test compounds dissolved in DMSO were then added to the plates using an Agilent Bravo workstation (Agilent Technologies Inc., Santa Clara, Calif.). Three minutes later, a pH 5.0 solution was added to each well. Reagents were delivered at a rate of 40 μL/sec, and the final assay volume was 80 μL. Acidic pH solutions were prepared by titration of DPBS/MES with 1 N HCl. The intensity of the fluorescence was captured and digitally transferred to an interfaced PC. The maximum peak measured for the concentration range tested was used to calculate the corresponding peak increase in fluorescence over baseline (relative fluorescence units) which was expressed as the percentage (max % remain) of the maximal pH 5.0-induced response.
Table 1 reports the percentage (max % remain) of the maximal pH 5.0-induced response measured for the compounds tested in the recombinant HEK293 cell assay. Most of the compounds tested inhibited calcium flux only partially following TRPV1 activation by the pH 5.0 solution.

T1 sequence (Q8NER1 whole entry): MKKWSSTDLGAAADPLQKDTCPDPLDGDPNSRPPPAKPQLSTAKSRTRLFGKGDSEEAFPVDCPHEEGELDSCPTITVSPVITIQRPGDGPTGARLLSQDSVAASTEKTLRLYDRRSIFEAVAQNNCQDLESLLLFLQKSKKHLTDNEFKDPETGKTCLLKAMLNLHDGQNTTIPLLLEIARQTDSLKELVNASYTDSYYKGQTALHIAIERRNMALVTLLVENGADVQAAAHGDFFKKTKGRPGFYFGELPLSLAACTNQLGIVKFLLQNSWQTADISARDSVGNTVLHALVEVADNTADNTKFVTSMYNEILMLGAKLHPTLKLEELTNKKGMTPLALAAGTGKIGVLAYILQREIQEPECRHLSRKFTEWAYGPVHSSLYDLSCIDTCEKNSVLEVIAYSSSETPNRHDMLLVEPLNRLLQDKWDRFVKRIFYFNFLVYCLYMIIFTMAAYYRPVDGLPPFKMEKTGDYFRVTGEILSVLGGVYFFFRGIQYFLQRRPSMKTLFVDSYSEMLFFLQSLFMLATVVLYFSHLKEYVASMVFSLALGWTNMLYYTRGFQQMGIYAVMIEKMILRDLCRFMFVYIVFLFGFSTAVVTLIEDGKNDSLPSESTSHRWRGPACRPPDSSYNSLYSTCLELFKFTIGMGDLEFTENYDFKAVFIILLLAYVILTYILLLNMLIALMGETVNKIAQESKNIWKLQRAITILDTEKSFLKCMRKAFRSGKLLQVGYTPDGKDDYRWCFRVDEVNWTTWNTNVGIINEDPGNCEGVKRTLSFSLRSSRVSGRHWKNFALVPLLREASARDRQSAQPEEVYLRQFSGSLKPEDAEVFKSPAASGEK

With `CCCC1(CCC)C[C@@H](NC(=O)Nc2ccc3c(c2)N(C)C(=O)CC3)c2cccc(F)c2O1` [Example 271, 1-[(4R)-8-fluoro-2,2-dipropyl-3,4-dihydro-2H-chromen-4-yl]-3-(1-methyl-2-oxo-1,2,3,4-tetrahydroquinolin-7-yl)urea] as the molecule, how does the IC50 (human TRPV1 [1]) read?
Its IC50 is 170 nM.

What about the “human TRPV1 H^+ (max % remain)” value (human TRPV1 [2]) of the same molecule?
Its value is 69%.

Which results are given for `CN1Cc2ccc(NC(=O)N[C@@H]3CC(CF)(CF)Oc4cc(C(F)(F)F)ccc43)cc2NC1=O` [Example 173, 1-[(4R)-2,2-bis(fluoromethyl)-7-(trifluoromethyl)-3,4-dihydro-2H-chromen-4-yl]-3-(3-methyl-2-oxo-1,2,3,4-tetrahydroquinazolin-7-yl)urea]?
IC50 (human TRPV1 [1]): 100 nM; human TRPV1 H^+ (max % remain) (human TRPV1 [2]): 54%

`O=C(Nc1cccc2[nH]c(=O)ccc12)N[C@@H]1CC(CF)(CF)Oc2cc(Cl)ccc21` [Example 99, 1-[(4R)-7-chloro-2,2-bis(fluoromethyl)-3,4-dihydro-2H-chromen-4-yl]-3-(2-oxo-1,2-dihydroquinolin-5-yl)urea] was tested. Which IC50 (human TRPV1 [1]) did it give?
Its IC50 is 91 nM.

And the “human TRPV1 H^+ (max % remain)” value (human TRPV1 [2])?
The value was 0%.

What does the source list for `CC1(C)C[C@@H](NC(=O)Nc2ccc3c(c2)NC(=O)CO3)c2ccc(Cl)c(F)c2O1` [Example 325, 1-[(4R)-7-chloro-8-fluoro-2,2-dimethyl-3,4-dihydro-2H-chromen-4-yl]-3-(3-oxo-3,4-dihydro-2H-1,4-benzoxazin-6-yl)urea]?
IC50 (human TRPV1 [1]): 21 nM; human TRPV1 H^+ (max % remain) (human TRPV1 [2]): 83%

Which results are given for `Cn1c(=O)ccc2c(NC(=O)N[C@@H]3CC(CF)(CF)Oc4ccccc43)cccc21` [Example 80, 1-[(4R)-2,2-bis(fluoromethyl)-3,4-dihydro-2H-chromen-4-yl]-3-(1-methyl-2-oxo-1,2-dihydroquinolin-5-yl)urea]?
IC50 (human TRPV1 [1]): 63 nM; human TRPV1 H^+ (max % remain) (human TRPV1 [2]): 45%

Which IC50 (human TRPV1 [1]) does the source give for `CCC1(CC)C[C@@H](NC(=O)Nc2ccc3c(c2)N(C)C(=O)CC3)c2cc(F)ccc2O1` [Example 270, 1-[(4R)-2,2-diethyl-6-fluoro-3,4-dihydro-2H-chromen-4-yl]-3-(1-methyl-2-oxo-1,2,3,4-tetrahydroquinolin-7-yl)urea] here?
Its IC50 is 220 nM.

And the “human TRPV1 H^+ (max % remain)” value (human TRPV1 [2])?
Its value is 86%.

For `Cn1c(=O)ccc2c(NC(=O)N[C@@H]3C[C@](C)(CF)Oc4cc(Cl)ccc43)cccc21` [Example 40, 1-[(2R,4R)-7-chloro-2-(fluoromethyl)-2-methyl-3,4-dihydro-2H-chromen-4-yl]-3-(1-methyl-2-oxo-1,2-dihydroquinolin-5-yl)urea], which IC50 (human TRPV1 [1]) is on record?
The IC50 was 22 nM.

And the “human TRPV1 H^+ (max % remain)” value (human TRPV1 [2])?
The value was 38%.

For `Cn1c(=O)ccc2c(NC(=O)N[C@@H]3CC(CF)(CF)Oc4c3ccc(Cl)c4F)cccc21` [Example 21, 1-[(4R)-7-chloro-8-fluoro-2,2-bis(fluoromethyl)-3,4-dihydro-2H-chromen-4-yl]-3-(1-methyl-2-oxo-1,2-dihydroquinolin-5-yl)urea], which IC50 (human TRPV1 [1]) is on record?
The IC50 was 26 nM.

What about the “human TRPV1 H^+ (max % remain)” value (human TRPV1 [2]) of the same molecule?
Its value is 48%.

For `CCCC1(CCC)C[C@@H](NC(=O)Nc2ccc3c(c2)NC(=O)CC3)c2cccc(F)c2O1` [Example 230, 1-[(4R)-8-fluoro-2,2-dipropyl-3,4-dihydro-2H-chromen-4-yl]-3-(2-oxo-1,2,3,4-tetrahydroquinolin-7-yl)urea], which IC50 (human TRPV1 [1]) is on record?
Its IC50 is 38 nM.

What about the “human TRPV1 H^+ (max % remain)” value (human TRPV1 [2]) of the same molecule?
Its value is 24%.

With `CN1C(=O)NCc2c(NC(=O)N[C@@H]3C[C@@](C)(C(F)F)Oc4cc(Cl)ccc43)cccc21` [Example 11, 1-[(2S,4R)-7-chloro-2-(difluoromethyl)-2-methyl-3,4-dihydro-2H-chromen-4-yl]-3-(1-methyl-2-oxo-1,2,3,4-tetrahydroquinazolin-5-yl)urea] as the molecule, how does the IC50 (human TRPV1 [1]) read?
Its IC50 is 21 nM.

And the “human TRPV1 H^+ (max % remain)” value (human TRPV1 [2])?
Its value is 32%.

What does the source list for `CN1C(=O)NCc2c(NC(=O)NC3COc4cc(Cl)ccc4C3)cccc21` (stereo not drawn) [Example 161, 1-(7-chloro-3,4-dihydro-2H-chromen-3-yl)-3-(1-methyl-2-oxo-1,2,3,4-tetrahydroquinazolin-5-yl)urea]?
IC50 (human TRPV1 [1]): 95 nM; human TRPV1 H^+ (max % remain) (human TRPV1 [2]): 9%

For `CCC1(CC)C[C@@H](NC(=O)Nc2ccc3c(c2)NC(=O)N(C)C3)c2ccc(C(F)(F)F)cc2O1` [Example 180, 1-[(4R)-2,2-diethyl-7-(trifluoromethyl)-3,4-dihydro-2H-chromen-4-yl]-3-(3-methyl-2-oxo-1,2,3,4-tetrahydroquinazolin-7-yl)urea], which IC50 (human TRPV1 [1]) is on record?
The IC50 was 230 nM.

What about the “human TRPV1 H^+ (max % remain)” value (human TRPV1 [2]) of the same molecule?
Its value is 12%.

Which IC50 (human TRPV1 [1]) does the source give for “1-(1-methyl-2-oxo-1,2,3,4-tetrahydroquinazolin-5-yl)-3-[(4R)-8-(trifluoromethoxy)-3,4-dihydro-2H-chromen-4-yl]urea [Example 138]” here?
The IC50 was 38 nM.

What about the “human TRPV1 H^+ (max % remain)” value (human TRPV1 [2]) of the same molecule?
Its value is 19%.

Which IC50 (human TRPV1 [1]) does the source give for `CN1C(=O)CCc2ccc(NC(=O)N[C@@H]3C[C@@](C)(C(F)(F)F)Oc4ccccc43)cc21` [Example 298, 1-(1-methyl-2-oxo-1,2,3,4-tetrahydroquinolin-7-yl)-3-[(2S,4R)-2-methyl-2-(trifluoromethyl)-3,4-dihydro-2H-chromen-4-yl]urea] here?
The IC50 was 67 nM.

And the “human TRPV1 H^+ (max % remain)” value (human TRPV1 [2])?
Its value is 69%.

How did the IC50 (human TRPV1 [1]) turn out when `O=C1CCc2ccc(NC(=O)N[C@@H]3CC(CF)(CF)Oc4cc(F)ccc43)cc2N1` [Example 250, 1-[(4R)-7-fluoro-2,2-bis(fluoromethyl)-3,4-dihydro-2H-chromen-4-yl]-3-(2-oxo-1,2,3,4-tetrahydroquinolin-7-yl)urea] was run?
The IC50 was 53 nM.

What about the “human TRPV1 H^+ (max % remain)” value (human TRPV1 [2]) of the same molecule?
Its value is 23%.

Which results are given for `COCC1(COC)C[C@@H](NC(=O)Nc2ccc3c(c2)NC(=O)CC3)c2cc(F)ccc2O1` [Example 237, 1-[(4R)-6-fluoro-2,2-bis(methoxymethyl)-3,4-dihydro-2H-chromen-4-yl]-3-(2-oxo-1,2,3,4-tetrahydroquinolin-7-yl)urea]?
IC50 (human TRPV1 [1]): 150 nM; human TRPV1 H^+ (max % remain) (human TRPV1 [2]): 52%

With `CCCC1(CCC)C[C@@H](NC(=O)Nc2cccc3c2CNC(=O)N3C)c2cccc(F)c2O1` [Example 156, 1-[(4R)-8-fluoro-2,2-dipropyl-3,4-dihydro-2H-chromen-4-yl]-3-(1-methyl-2-oxo-1,2,3,4-tetrahydroquinazolin-5-yl)urea] as the molecule, how does the IC50 (human TRPV1 [1]) read?
The IC50 was 190 nM.

What about the “human TRPV1 H^+ (max % remain)” value (human TRPV1 [2]) of the same molecule?
The value was 67%.

With `Cn1c(=O)ccc2c(NC(=O)N[C@@H]3CC(CF)(CF)Oc4cc(Cl)ccc43)cccc21` [Example 20, 1-[(4R)-7-chloro-2,2-bis(fluoromethyl)-3,4-dihydro-2H-chromen-4-yl]-3-(1-methyl-2-oxo-1,2-dihydroquinolin-5-yl)urea] as the molecule, how does the IC50 (human TRPV1 [1]) read?
The IC50 was 58 nM.

And the “human TRPV1 H^+ (max % remain)” value (human TRPV1 [2])?
Its value is 34%.
